Organism: Rattus norvegicus
Assay: Open TG-GATES - Regimen: Daily Repeat
Type: toxicity, organism-based, Sprague-Dawley
Set-up: regimen Daily Repeat, gender Male, age 6 weeks
Details: in vivo, po, 0 mg/kg, route gavage, dose level Control; for APTT / Bas / Eos / Fbg / Hb / Ht / Lym / MCH / MCHC / MCV / Mono / Neu / PT / Plat / RBC / Ret / WBC: tissue Blood; for KIDNEY_L / KIDNEY_R / KIDNEY_TOTAL: tissue Kidney; for LIVER: tissue Liver; for A/G / ALP / ALT / AST / BUN / CRE / Ca / Cl / DBIL / GLC / IP / K / LDH / Na / PL / RALB / TBIL / TC / TG / TP / gamma-GTP: tissue Plasma

CC(=N)S [THIOACETAMIDE] showed a TERMINAL_BW (72 h, time 3 day) of 229.8 g, an APTT (72 h, time 3 day) of 17 s and a Bas (72 h, time 3 day) of 0%. It also gave an Eos (72 h, time 3 day) of 1%, a Fbg (72 h, time 3 day) of 232.2 mg/dL and a Hb (72 h, time 3 day) of 13.8 g/dL. For the same compound, the Ht (72 h, time 3 day) was 42.6%, the Lym (72 h, time 3 day) was 74.8% and the MCH (72 h, time 3 day) was 21.2 pg. The MCHC (72 h, time 3 day) was 32.5%, the MCV (72 h, time 3 day) was 65.3 fL and the Mono (72 h, time 3 day) was 8%. For the same compound, the Neu (72 h, time 3 day) was 16.4%, the PT (72 h, time 3 day) was 11.5 s and the Plat (72 h, time 3 day) was 111.4 x10_4/uL. The RBC (72 h, time 3 day) was 652.8 x10_4/ul, the Ret (72 h, time 3 day) was 7% and the WBC (72 h, time 3 day) was 125.1 x10_2/uL. For the same compound, the KIDNEY_L (72 h, time 3 day) was 1 g, the KIDNEY_R (72 h, time 3 day) was 1 g and the KIDNEY_TOTAL (72 h, time 3 day) was 2 g. For the same compound, the LIVER (72 h, time 3 day) was 10.7 g, the A/G (72 h, time 3 day) was 2.1 and the ALP (72 h, time 3 day) was 1014.4 IU/L. The ALT (72 h, time 3 day) was 31 IU/L, the AST (72 h, time 3 day) was 62.2 IU/L and the BUN (72 h, time 3 day) was 17 mg/dL. It also gave a CRE (72 h, time 3 day) of 0.6 mg/dL, a Ca (72 h, time 3 day) of 10.4 mg/dL and a Cl (72 h, time 3 day) of 104.2 meq/L. For the same compound, the DBIL (72 h, time 3 day) was 0.018 mg/dL, the GLC (72 h, time 3 day) was 196.6 mg/dL and the IP (72 h, time 3 day) was 7.6 mg/dL. It also gave a K (72 h, time 3 day) of 4.9 meq/L, an LDH (72 h, time 3 day) of 88 IU/L and a Na (72 h, time 3 day) of 137.6 meq/L. For the same compound, the PL (72 h, time 3 day) was 157.4 mg/dL, the RALB (72 h, time 3 day) was 4 g/dL and the TBIL (72 h, time 3 day) was 0.4 mg/dL. It also gave a TC (72 h, time 3 day) of 80.4 mg/dL, a TG (72 h, time 3 day) of 106.6 mg/dL and a TP (72 h, time 3 day) of 5.8 g/dL. The gamma-GTP (72 h, time 3 day) was 1 IU/L, the TERMINAL_BW ([…], time 7 day) was 254.8 g and the TERMINAL_BW ([…], time 14 day) was 312.2 g. It also gave a TERMINAL_BW ([…], time 28 day) of 377.5 g, an APTT ([…], time 7 day) of 17.3 s and a Bas ([…], time 7 day) of 0%. It also gave an Eos ([…], time 7 day) of 1%, a Fbg ([…], time 7 day) of 226.2 mg/dL and a Hb ([…], time 7 day) of 13.8 g/dL. For the same compound, the Ht ([…], time 7 day) was 41.8%, the Lym ([…], time 7 day) was 83.6% and the MCH ([…], time 7 day) was 20.8 pg. For the same compound, the MCHC ([…], time 7 day) was 33%, the MCV ([…], time 7 day) was 63.1 fL and the Mono ([…], time 7 day) was 4.4%. It also gave a Neu ([…], time 7 day) of 10.8%, a PT ([…], time 7 day) of 11.8 s and a Plat ([…], time 7 day) of 111.5 x10_4/uL. For the same compound, the RBC ([…], time 7 day) was 661.6 x10_4/ul, the Ret ([…], time 7 day) was 5.3% and the WBC ([…], time 7 day) was 145.6 x10_2/uL. It also gave an APTT ([…], time 14 day) of 17.4 s, a Bas ([…], time 14 day) of 0% and an Eos ([…], time 14 day) of 0.8%. The Fbg ([…], time 14 day) was 223.8 mg/dL, the Hb ([…], time 14 day) was 14.6 g/dL and the Ht ([…], time 14 day) was 44.1%. For the same compound, the Lym ([…], time 14 day) was 81%, the MCH ([…], time 14 day) was 20.2 pg and the MCHC ([…], time 14 day) was 33.1%. The MCV ([…], time 14 day) was 61.1 fL, the Mono ([…], time 14 day) was 5.8% and the Neu ([…], time 14 day) was 12.6%. It also gave a PT ([…], time 14 day) of 11.8 s, a Plat ([…], time 14 day) of 101.4 x10_4/uL and an RBC ([…], time 14 day) of 722.8 x10_4/ul. It also gave a Ret ([…], time 14 day) of 4.5%, a WBC ([…], time 14 day) of 145.6 x10_2/uL and an APTT ([…], time 28 day) of 17.5 s. The Bas ([…], time 28 day) was 0%, the Eos ([…], time 28 day) was 1% and the Fbg ([…], time 28 day) was 248.6 mg/dL. It also gave a Hb ([…], time 28 day) of 15.9 g/dL, a Ht ([…], time 28 day) of 46.8% and a Lym ([…], time 28 day) of 86.2%. The MCH ([…], time 28 day) was 19.7 pg, the MCHC ([…], time 28 day) was 33.9% and the MCV ([…], time 28 day) was 58 fL. The Mono ([…], time 28 day) was 4%, the Neu ([…], time 28 day) was 9.2% and the PT ([…], time 28 day) was 10.8 s. It also gave a Plat ([…], time 28 day) of 104.1 x10_4/uL, an RBC ([…], time 28 day) of 807.6 x10_4/ul and a Ret ([…], time 28 day) of 2.8%. For the same compound, the WBC ([…], time 28 day) was 194 x10_2/uL, the KIDNEY_L ([…], time 7 day) was 1.1 g and the KIDNEY_R ([…], time 7 day) was 1.1 g. The KIDNEY_TOTAL ([…], time 7 day) was 2.1 g, the KIDNEY_L ([…], time 14 day) was 1.2 g and the KIDNEY_R ([…], time 14 day) was 1.2 g. For the same compound, the KIDNEY_TOTAL ([…], time 14 day) was 2.3 g, the KIDNEY_L ([…], time 28 day) was 1.4 g and the KIDNEY_R ([…], time 28 day) was 1.4 g. The KIDNEY_TOTAL ([…], time 28 day) was 2.7 g, the LIVER ([…], time 7 day) was 11.8 g and the LIVER ([…], time 14 day) was 13.8 g. It also gave an LIVER ([…], time 28 day) of 15.2 g, an A/G ([…], time 7 day) of 1.8 and an ALP ([…], time 7 day) of 868.8 IU/L. The ALT ([…], time 7 day) was 27.4 IU/L, the AST ([…], time 7 day) was 56.8 IU/L and the BUN ([…], time 7 day) was 19.4 mg/dL. For the same compound, the CRE ([…], time 7 day) was 0.6 mg/dL, the Ca ([…], time 7 day) was 10.3 mg/dL and the Cl ([…], time 7 day) was 104.4 meq/L. The DBIL ([…], time 7 day) was 0.016 mg/dL, the GLC ([…], time 7 day) was 190.2 mg/dL and the IP ([…], time 7 day) was 7.1 mg/dL. It also gave a K ([…], time 7 day) of 5.2 meq/L, an LDH ([…], time 7 day) of 79 IU/L and a Na ([…], time 7 day) of 136.2 meq/L. It also gave a PL ([…], time 7 day) of 154.6 mg/dL, an RALB ([…], time 7 day) of 3.9 g/dL and a TBIL ([…], time 7 day) of 0.3 mg/dL. The TC ([…], time 7 day) was 75 mg/dL, the TG ([…], time 7 day) was 145.8 mg/dL and the TP ([…], time 7 day) was 6.1 g/dL. For the same compound, the gamma-GTP ([…], time 7 day) was 1 IU/L, the A/G ([…], time 14 day) was 2 and the ALP ([…], time 14 day) was 716 IU/L. It also gave an ALT ([…], time 14 day) of 32.2 IU/L, an AST ([…], time 14 day) of 64.8 IU/L and a BUN ([…], time 14 day) of 18.6 mg/dL. For the same compound, the CRE ([…], time 14 day) was 0.6 mg/dL, the Ca ([…], time 14 day) was 10.1 mg/dL and the Cl ([…], time 14 day) was 103 meq/L. The DBIL ([…], time 14 day) was 0.002 mg/dL, the GLC ([…], time 14 day) was 181.6 mg/dL and the IP ([…], time 14 day) was 7.1 mg/dL. For the same compound, the K ([…], time 14 day) was 4.7 meq/L, the LDH ([…], time 14 day) was 76 IU/L and the Na ([…], time 14 day) was 134.8 meq/L. It also gave a PL ([…], time 14 day) of 169 mg/dL, an RALB ([…], time 14 day) of 4.1 g/dL and a TBIL ([…], time 14 day) of 0.3 mg/dL. It also gave a TC ([…], time 14 day) of 81.6 mg/dL, a TG ([…], time 14 day) of 158.6 mg/dL and a TP ([…], time 14 day) of 6.1 g/dL. For the same compound, the gamma-GTP ([…], time 14 day) was 1.4 IU/L, the A/G ([…], time 28 day) was 1.9 and the ALP ([…], time 28 day) was 629 IU/L. It also gave an ALT ([…], time 28 day) of 29.4 IU/L, an AST ([…], time 28 day) of 63 IU/L and a BUN ([…], time 28 day) of 18.8 mg/dL. The CRE ([…], time 28 day) was 0.6 mg/dL, the Ca ([…], time 28 day) was 10.1 mg/dL and the Cl ([…], time 28 day) was 103 meq/L. For the same compound, the DBIL ([…], time 28 day) was 0 mg/dL, the GLC ([…], time 28 day) was 179.4 mg/dL and the IP ([…], time 28 day) was 6.8 mg/dL. The K ([…], time 28 day) was 4.5 meq/L, the LDH ([…], time 28 day) was 96.4 IU/L and the Na ([…], time 28 day) was 135.4 meq/L. The PL ([…], time 28 day) was 172.8 mg/dL, the RALB ([…], time 28 day) was 4.1 g/dL and the TBIL ([…], time 28 day) was 0.2 mg/dL. It also gave a TC ([…], time 28 day) of 83 mg/dL, a TG ([…], time 28 day) of 174.6 mg/dL and a TP ([…], time 28 day) of 6.3 g/dL. The gamma-GTP ([…], time 28 day) was 1.2 IU/L.

— ChEMBL document CHEMBL3885861, “Open TG-GATES”
